Reference: patent US20250332173A1, “COMPOUNDS AND METHODS FOR MODULATING NUCLEIC ACID SPLICING” (REMIX THERAPEUTICS INC., priority 2021, published 2025)

Assays:
SMN2 mRNA = test: RT-qPCR splicing assay, SMN2 canonical junction (CJ) mRNA; format: cell-based, human; conditions: Homo sapiens; Table 5 panel; canonical junction qPCR; compound concentration having 50% response in CJ decrease; read-out: SMN2 IC50 (decrease in CJ mRNA levels)
In short: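 A673 cells (DMEM/10% FBS) or K562 cells (IMDM/10% FBS) were treated 24 h at 37° C. with 11-point 3-fold dilutions (top 10 uM, ≤0.25% DMSO). Canonical-junction mRNA was quantified in lysates by RT-qPCR, normalized to GAPDH, GUSB or PPIA.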

HTT = test: HiBiT protein abundance assay, HTT HiBiT K562 cell line; format: cell-based, human; conditions: HiBiT K562 cell line, 24 hours, top dose 10 μM; read-out: Effect on protein abundance, HTT (IC50 category)
In short: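 Endogenous targets in K562 knock-in lines carried a HiBiT tag and were treated for 24 h at 37 °C with 10-point 3-fold dilutions (top 10 μM final, DMSO ≤0.25%). Abundance was read as lytic Nano-Glo HiBiT luminescence. IC50 came from a four-parameter logistic fit of normalized response.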

[1] = test system: K562 (human chronic myelogenous leukemia) cells; test: Cell Titer Glo 2.0 cell viability assay; format: cell-based; conditions: Homo sapiens, K562, 72 h, K562 cells, 72 hours, Cell Titer Glo 2.0; read-out: K562 GI50

Cn1cc2cc(-c3ncc4c(=O)n(C5CCNCC5)ccc4n3)c(O)c(F)c2n1 [Compound 1123]
IC50 (SMN2 mRNA): < 100 nM
IC50 (HTT): < 100 nM
GI50 [1]: < 100 nM

Cc1cn2nc(-c3cc(O)c4c(=O)n(C5CCNCC5)ncc4c3)cc(C)c2n1 [Compound 541]
IC50 (SMN2 mRNA): < 100 nM
IC50 (HTT): < 100 nM
GI50 [1]: < 100 nM

COC(=O)Cc1cc(-c2ccc3c(=O)n(C4CCNCC4)ccc3c2)nn2cc(C)nc12 [Compound 527]
IC50 (SMN2 mRNA): < 100 nM
IC50 (HTT): 100 to 1000 nM
GI50 [1]: 1000 to 10000 nM
